{"source": "paper PMC2724550", "about": "“Citrus auraptene suppresses cyclin D1 and significantly delays N-methyl nitrosourea induced mammary carcinogenesis in female Sprague-Dawley rats” (BMC Cancer, 2009)", "key": {"cyclin D1 [1]": {"system": "cyclin D1", "assay": "Western blot of cyclin D1 expression in rat mammary tumors", "format": "in vivo, female Sprague-Dawley rats", "details": "500 ppm in diet, compared to MNU only group, n = 10 per group", "procedure": "The mammary tumors from the female Sprague-Dawley rats were analyzed for cyclin D1 expression and eukaryotic Initiation Factor 4E (eIF4E) as previously described. Briefly, samples were first homogenized in RIPA buffer [50 mM Tris-HCL (pH 7.4), 1% Triton-X, 150 mM NaCl, 1 mM EDTA, 1 mM sodium orthovanadate, 1 mM PMSF, 1 μg of aprotinin, leupeptin and pepstatin and 1 mM sodium fluoride]. The proteins were measured by Bradford method (using BSA as a standard), followed by the addition of 2 × sample buffer [0.125 M Tris, 10% (w/v) SDS, 40% (v/v) glycerol, 0.04% (w/v) bromophenol blue, and 80 mM dithiothreitol]. Samples were heated to 95°C for 5 min, and 10 μg of protein/well was loaded and resolved. The proteins were then transferred and detected for cyclin D1 expression as mentioned above. Lysate from MCF-7 cells treated with IGF-1 was used as positive control for cyclin D1.\nFigure 5 Effects of dietary auraptene on cyclin D1 expression in rat mammary tumors. From the same tumor study, rat mammary tumors were homogenized and the lysates were used for western blot to analyze the cyclin D1 expression. […] (+ statistically different from MNU group, * statistically different from Auraptene 200 group, p < 0.05, One-way ANOVA, Tukey test)."}, "cyclin D1 [2]": {"system": "cyclin D1", "assay": "Western blot of IGF-1 induced cyclin D1 expression in MCF-7 cells", "format": "cell-based, human", "details": "10 μM auraptene, 2 h pretreatment, 8 h after IGF-1, MCF-7 cells", "procedure": "To study the effect of auraptene on the expression on cyclin D1, MCF-7 cells were plated in eight 12-well plates at 1.5 × 10^4 cells/well. The cells were incubated at 37°C till the next day in media with serum. The cells were serum starved for synchronization in serum free media for the next 24 h. At 22 h of serum starvation, the cells except in DMSO only and IGF-1 only groups, were treated with 10 μM auraptene in DMSO. At 24 h of serum starvation, the cells except in DMSO group were treated with 10 ng/mL of IGF-1. The cells were harvested at 5,15 and 30 minutes and at 1 h, 2 h, 4 h, 8 h and 24 h after IGF-1 treatment by directly adding boiling Laemmeli buffer. The cyclin D1 expression was then analyzed by western blot. In short, equal volumes (15 μL) of the sample in Laemmeli buffer was loaded into each well and resolved. The separated proteins were then electroblotted on a 0.45 μm pore size PVDF membrane (Immobilon-P, Millipore, Billerica, MA). After the protein transfer the membrane was placed in Millipore SNAP id Protein Detection System. […] The band intensity was evaluated using the Image-J software. […]\nFigure 2 Effects of auraptene on human breast carcinoma cells. […] Cell proliferation was assessed using the MTT reagent. […] Cell proliferation was assessed using the MTS reagent. […]"}}, "data": [{"smiles": "CC(C)=CCC/C(C)=C/COc1ccc2ccc(=O)oc2c1", "note": "[auraptene]", "values": [{"measurement": "reduction of cyclin D1 expression in rat mammary tumors", "setting": "cyclin D1 [1]", "value": 49, "unit": "%"}, {"measurement": "IGF-1 induced cyclin D1 expression", "setting": "cyclin D1 [2]", "value": "nearly a total loss of IGF-1 induced cyclin D1 expression"}]}]}
